From PMC11277489, “Novel Piperazine Derivatives of Vindoline as Anticancer Agents” (International Journal of Molecular Sciences, 2024)

Experiments:
[1] = tested on: A498; experiment: NCI60 one-dose screen (10 μM), Renal Cancer; type: cell-based; conditions: Homo sapiens, A498, read-out: Growth percent rate
[2] = tested on: 786–0; experiment: NCI60 one-dose screen (10 μM), Renal Cancer; type: cell-based; conditions: Homo sapiens, 786-0, read-out: Growth percent rate
[3] = tested on: SK-MEL-28; experiment: NCI60 one-dose screen (10 μM), Melanoma; type: cell-based; conditions: Homo sapiens, SK-MEL-28, read-out: Growth percent rate
[4] = tested on: A549/ATCC; experiment: NCI60 one-dose screen (10 μM), Non-small Cell Lung Cancer; type: cell-based; conditions: Homo sapiens, A549, read-out: Growth percent rate
[5] = tested on: HL-60(TB); experiment: NCI60 one-dose screen (10 μM), Leukemia; type: cell-based; conditions: Homo sapiens, HL-60, read-out: Growth percent rate
[6] = tested on: NCI-H23; experiment: NCI60 one-dose screen (10 μM), Non-small Cell Lung Cancer; type: cell-based; conditions: Homo sapiens, NCI-H23, read-out: Growth percent rate
[7] = tested on: 60 human tumor cell lines (NCI60); experiment: NCI60 one-dose screen (10 μM), whole panel; type: cell-based; conditions: for antiproliferative effect (in words): 10 μM one-dose, NCI60
[8] = tested on: MCF7; experiment: NCI60 one-dose screen (10 μM), Breast Cancer; type: cell-based; conditions: Homo sapiens, MCF7, read-out: Growth percent rate
[9] = tested on: HCC-2998; experiment: NCI60 one-dose screen (10 μM), Colon Cancer; type: cell-based; conditions: Homo sapiens, HCC 2998, read-out: Growth percent rate
[10] = tested on: K-562; experiment: NCI60 one-dose screen (10 μM), Leukemia; type: cell-based; conditions: Homo sapiens, K562, read-out: Growth percent rate
[11] = tested on: SW-620; experiment: NCI60 one-dose screen (10 μM), Colon Cancer; type: cell-based; conditions: Homo sapiens, SW-620, read-out: Growth percent rate
[12] = tested on: SF-539; experiment: NCI60 one-dose screen (10 μM), CNS Cancer; type: cell-based, human; conditions: Homo sapiens, SF-539, read-out: Growth percent rate
[13] = tested on: ACHN; experiment: NCI60 one-dose screen (10 μM), Renal Cancer; type: cell-based; conditions: Homo sapiens, read-out: Growth percent rate
[14] = tested on: EKVX; experiment: NCI60 one-dose screen (10 μM), Non-small Cell Lung Cancer; type: cell-based; conditions: Homo sapiens, read-out: Growth percent rate
[15] = tested on: SN12C; experiment: NCI60 one-dose screen (10 μM), Renal Cancer; type: cell-based; conditions: Homo sapiens, read-out: Growth percent rate
[16] = tested on: SNB-75; experiment: NCI60 one-dose screen (10 μM), CNS Cancer; type: cell-based, human; conditions: Homo sapiens, SNB-75, read-out: Growth percent rate
[17] = tested on: RPMI-8226; experiment: NCI60 one-dose screen (10 μM), Leukemia; type: cell-based; conditions: Homo sapiens, RPMI-8226, read-out: Growth percent rate
[18] = tested on: CCRF-CEM; experiment: NCI60 one-dose screen (10 μM), Leukemia; type: cell-based; conditions: Homo sapiens, read-out: Growth percent rate
[19] = tested on: OVCAR-3; experiment: NCI60 one-dose screen (10 μM), Ovarian Cancer; type: cell-based; conditions: Homo sapiens, OVCAR-3, read-out: Growth percent rate
[20] = tested on: NCI-H522; experiment: NCI60 one-dose screen (10 μM), Non-small Cell Lung Cancer; type: cell-based; conditions: Homo sapiens, NCI-H522, read-out: Growth percent rate
[21] = tested on: COLO 205; experiment: NCI60 one-dose screen (10 μM), Colon Cancer; type: cell-based, human; conditions: Homo sapiens, COLO 205, read-out: Growth percent rate
[22] = tested on: HCT-116; experiment: NCI60 one-dose screen (10 μM), Colon Cancer; type: cell-based; conditions: Homo sapiens, HCT-116, read-out: Growth percent rate
[23] = tested on: U251; experiment: NCI60 one-dose screen (10 μM), CNS Cancer; type: cell-based; conditions: Homo sapiens, U-251, read-out: Growth percent rate
[24] = tested on: MDA-MB-435; experiment: NCI60 one-dose screen (10 μM), Melanoma; type: cell-based; conditions: Homo sapiens, MDA-MB-435, read-out: Growth percent rate
[25] = tested on: MOLT-4; experiment: NCI60 one-dose screen (10 μM), Leukemia; type: cell-based, human; conditions: Homo sapiens, MOLT-4, read-out: Growth percent rate
[26] = tested on: OVCAR-8; experiment: NCI60 one-dose screen (10 μM), Ovarian Cancer; type: cell-based; conditions: Homo sapiens, OVCAR-8, read-out: Growth percent rate
[27] = tested on: OVCAR-4; experiment: NCI60 one-dose screen (10 μM), Ovarian Cancer; type: cell-based; conditions: Homo sapiens, OVCAR-4, read-out: Growth percent rate
[28] = tested on: HS 578T; experiment: NCI60 one-dose screen (10 μM), Breast Cancer; type: cell-based; conditions: Homo sapiens, Hs-578T, read-out: Growth percent rate
[29] = tested on: HCT-15; experiment: NCI60 one-dose screen (10 μM), Colon Cancer; type: cell-based; conditions: Homo sapiens, HCT-15, read-out: Growth percent rate
[30] = tested on: CAKI-1; experiment: NCI60 one-dose screen (10 μM), Renal Cancer; type: cell-based; conditions: Homo sapiens, CAKI-1, read-out: Growth percent rate
[31] = tested on: SF-268; experiment: NCI60 one-dose screen (10 μM), CNS Cancer; type: cell-based; conditions: Homo sapiens, SF-268, read-out: Growth percent rate
[32] = tested on: SK-MEL-2; experiment: NCI60 one-dose screen (10 μM), Melanoma; type: cell-based; conditions: Homo sapiens, SK-MEL-2, read-out: Growth percent rate
[33] = tested on: IGROV1; experiment: NCI60 one-dose screen (10 μM), Ovarian Cancer; type: cell-based; conditions: Homo sapiens, IGROV-1, read-out: Growth percent rate
[34] = tested on: NCI-H322M; experiment: NCI60 one-dose screen (10 μM), Non-small Cell Lung Cancer; type: cell-based; conditions: Homo sapiens, read-out: Growth percent rate
[35] = tested on: NCI-H460; experiment: as above; type: cell-based; conditions: Homo sapiens, NCI-H460, read-out: Growth percent rate
[36] = tested on: DU-145; experiment: NCI60 one-dose screen (10 μM), Prostate Cancer; type: cell-based; conditions: Homo sapiens, DU-145, read-out: Growth percent rate
[37] = tested on: HT29; experiment: NCI60 one-dose screen (10 μM), Colon Cancer; type: cell-based; conditions: Homo sapiens, HT-29, read-out: Growth percent rate
[38] = tested on: UACC-257; experiment: NCI60 one-dose screen (10 μM), Melanoma; type: cell-based; conditions: Homo sapiens, UACC-257, read-out: Growth percent rate
[39] = tested on: SK-MEL-5; experiment: NCI60 one-dose screen (10 μM), Melanoma; type: cell-based, human; conditions: Homo sapiens, SK-MEL-5, read-out: Growth percent rate
[40] = tested on: RXF 393; experiment: NCI60 one-dose screen (10 μM), Renal Cancer; type: cell-based, human; conditions: Homo sapiens, RXF 393, read-out: Growth percent rate
[41] = tested on: M14; experiment: NCI60 one-dose screen (10 μM), Melanoma; type: cell-based; conditions: Homo sapiens, M14, read-out: Growth percent rate
[42] = tested on: HOP-62; experiment: NCI60 one-dose screen (10 μM), Non-small Cell Lung Cancer; type: cell-based; conditions: Homo sapiens, HOP-62, read-out: Growth percent rate

Structure (SMILES): CCC12C=CCN3CC[C@@]4(c5ccc(OC)cc5N(C)[C@H]4[C@@](O)(C(=O)OC)[C@@H]1OC(C)=O)[C@@H]32 (some centres unmarked) [Compound 1, vindoline]
- activity at 10 µM [1]: 137%
- activity at 10 µM [2]: 97.5%
- activity at 10 µM [3]: 134%
- activity at 10 µM [4]: 101%
- activity at 10 µM [5]: 96.7%
- activity at 10 µM [6]: 95.3%
- antiproliferative effect (in words) [7]: a notable antiproliferative effect was not shown
- antiproliferative effect (in words) ([7]; listed as vindoline): does not show any anticancer effect
- activity at 10 µM ([7]; Homo sapiens, read-out: Growth percent rate, Mean): 107%
- activity at 10 µM [8]: 89.9%
- activity at 10 µM [9]: 101%
- activity at 10 µM [10]: 89.3%
- activity at 10 µM [11]: 121%
- activity at 10 µM [12]: 116%
- activity at 10 µM [13]: 105%
- activity at 10 µM [14]: 92%
- activity at 10 µM [15]: 100%
- activity at 10 µM [16]: 119%
- activity at 10 µM [17]: 105%
- activity at 10 µM [18]: 102%
- activity at 10 µM [19]: 127%
- activity at 10 µM [20]: 99.7%
- activity at 10 µM [21]: 111%
- activity at 10 µM [22]: 116%
- activity at 10 µM [23]: 95.9%
- activity at 10 µM [24]: 104%
- activity at 10 µM [25]: 92.7%
- activity at 10 µM [26]: 103%
- activity at 10 µM [27]: 136%
- activity at 10 µM [28]: 98%
- activity at 10 µM [29]: 103%
- activity at 10 µM [30]: 105%
- activity at 10 µM [31]: 122%
- activity at 10 µM [32]: 106%
- activity at 10 µM [33]: 145%
- activity at 10 µM [34]: 109%
- activity at 10 µM [35]: 120%
- activity at 10 µM [36]: 119%
- activity at 10 µM [37]: 108%
- activity at 10 µM [38]: 95.8%
- activity at 10 µM [39]: 89.2%
- activity at 10 µM [40]: 98%
- activity at 10 µM [41]: 105%
- activity at 10 µM [42]: 99%
